Assays:
Test in all cases: relative viability (nuclei count vs DMSO), 5 days (fraction); higher = more cells survive
[1] = system: NCI-H1648
Procedure, shortened: (§1)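 Lung cancer cell lines were seeded in 1536-well plates and dosed by pin tool the next day, with either a single drug or a fixed anchor-drug dose combined with five library-drug doses (not always all listed) spaced in √10 steps. Five days later, one step fixed the cells and stained their nuclei (final 0.05% Triton X-100, 1% formaldehyde, 1 ug/ml Hoechst), and nuclei were counted on 4× images. Relative viability is the nuclei count in treated wells divided by the count in vehicle wells, and each value is the median of duplicate plates.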

[2] = system: NCI-H322M
Procedure, shortened: as §1

[3] = system: LCLC-97TM1
Procedure, shortened: as §1

[4] = system: NCI-H596
Procedure, shortened: as §1

[5] = system: NCI-H23
Procedure, shortened: as §1

[6] = system: NCI-H1993
Procedure, shortened: as §1

[7] = system: NCI-H1355
Procedure, shortened: as §1

[8] = system: UMC-11
Procedure, shortened: as §1

Cc1sc2c(c1C)C(c1ccc(Cl)cc1)=N[C@@H](CC(=O)OC(C)(C)C)c1nnc(C)n1-2 [JQ1] + CC(=O)Nc1cccc(-n2c(=O)n(C3CC3)c(=O)c3c(Nc4ccc(I)cc4F)n(C)c(=O)c(C)c32)c1 [Trametinib] (partner 0.02 µM)
relative viability ([1]; first compound 0.04 µM): 0.432 | relative viability ([1]; first compound 0.1265 µM): 0.473 | relative viability ([1]; first compound 0.4 µM): 0.337 | relative viability ([1]; first compound 1.265 µM): 0.303 | relative viability ([1]; first compound 4 µM): 0.245 | relative viability ([2]; first compound 0.04 µM): 0.555 | relative viability ([2]; first compound 0.1265 µM): 0.644 | relative viability ([2]; first compound 0.4 µM): 0.45 | relative viability ([2]; first compound 1.265 µM): 0.334 | relative viability ([2]; first compound 4 µM): 0.539 | relative viability ([3]; first compound 0.04 µM): 0.187 | relative viability ([3]; first compound 0.1265 µM): 0.149 | relative viability ([3]; first compound 0.4 µM): 0.189 | relative viability ([3]; first compound 1.265 µM): 0.102 | relative viability ([3]; first compound 4 µM): 0.102 | relative viability ([4]; first compound 0.04 µM): 0.776 | relative viability ([4]; first compound 0.1265 µM): 0.683 | relative viability ([4]; first compound 0.4 µM): 0.442 | relative viability ([4]; first compound 1.265 µM): 0.338 | relative viability ([4]; first compound 4 µM): 0.31 | relative viability ([5]; first compound 0.04 µM): 0.348 | relative viability ([5]; first compound 0.1265 µM): 0.268 | relative viability ([5]; first compound 0.4 µM): 0.256 | relative viability ([5]; first compound 1.265 µM): 0.201 | relative viability ([5]; first compound 4 µM): 0.173 | relative viability ([6]; first compound 0.04 µM): 0.465 | relative viability ([6]; first compound 0.1265 µM): 0.461 | relative viability ([6]; first compound 0.4 µM): 0.541 | relative viability ([6]; first compound 1.265 µM): 0.542 | relative viability ([6]; first compound 4 µM): 0.57 | relative viability ([7]; first compound 0.04 µM): 0.432 | relative viability ([7]; first compound 0.1265 µM): 0.429 | relative viability ([7]; first compound 0.4 µM): 0.34 | relative viability ([7]; first compound 1.265 µM): 0.277 | relative viability ([7]; first compound 4 µM): 0.255 | relative viability ([8]; first compound 0.04 µM): 0.588 | relative viability ([8]; first compound 0.1265 µM): 0.543 | relative viability ([8]; first compound 0.4 µM): 0.377 | relative viability ([8]; first compound 1.265 µM): 0.204 | relative viability ([8]; first compound 4 µM): 0.194

Nc1ccn([C@@H]2O[C@H](CO)[C@@H](O)[C@@H]2O)c(=O)n1 [Cytarabine] + Nc1nc2[nH]cc(CCc3ccc(C(=O)N[C@@H](CCC(=O)O)C(=O)O)cc3)c2c(=O)[nH]1 [Pemetrexed] (partner 0.2 µM)
relative viability ([1]; first compound 0.005 µM): 0.563 | relative viability ([1]; first compound 0.01581 µM): 0.733 | relative viability ([1]; first compound 0.05 µM): 0.838 | relative viability ([1]; first compound 0.1581 µM): 0.653 | relative viability ([1]; first compound 0.5 µM): 0.515 | relative viability ([2]; first compound 0.005 µM): 0.609 | relative viability ([2]; first compound 0.01581 µM): 0.628 | relative viability ([2]; first compound 0.05 µM): 0.572 | relative viability ([2]; first compound 0.1581 µM): 0.408 | relative viability ([2]; first compound 0.5 µM): 0.384 | relative viability ([3]; first compound 0.005 µM): 0.209 | relative viability ([3]; first compound 0.01581 µM): 0.179 | relative viability ([3]; first compound 0.05 µM): 0.0983 | relative viability ([3]; first compound 0.1581 µM): 0.108 | relative viability ([3]; first compound 0.5 µM): 0.0633 | relative viability ([4]; first compound 0.005 µM): 0.41 | relative viability ([4]; first compound 0.01581 µM): 0.485 | relative viability ([4]; first compound 0.05 µM): 0.472 | relative viability ([4]; first compound 0.1581 µM): 0.379 | relative viability ([4]; first compound 0.5 µM): 0.349 | relative viability ([5]; first compound 0.005 µM): 0.611 | relative viability ([5]; first compound 0.01581 µM): 0.527 | relative viability ([5]; first compound 0.05 µM): 0.445 | relative viability ([5]; first compound 0.1581 µM): 0.172 | relative viability ([5]; first compound 0.5 µM): 0.159 | relative viability ([6]; first compound 0.005 µM): 0.682 | relative viability ([6]; first compound 0.01581 µM): 0.548 | relative viability ([6]; first compound 0.05 µM): 0.299 | relative viability ([6]; first compound 0.1581 µM): 0.448 | relative viability ([6]; first compound 0.5 µM): 0.471 | relative viability ([7]; first compound 0.005 µM): 0.883 | relative viability ([7]; first compound 0.01581 µM): 0.988 | relative viability ([7]; first compound 0.05 µM): 0.821 | relative viability ([7]; first compound 0.1581 µM): 0.553 | relative viability ([7]; first compound 0.5 µM): 0.324 | relative viability ([8]; first compound 0.005 µM): 0.551 | relative viability ([8]; first compound 0.01581 µM): 0.491 | relative viability ([8]; first compound 0.05 µM): 0.428 | relative viability ([8]; first compound 0.1581 µM): 0.226 | relative viability ([8]; first compound 0.5 µM): 0.195

Cc1sc2c(c1C)C(c1ccc(Cl)cc1)=N[C@@H](CC(=O)OC(C)(C)C)c1nnc(C)n1-2 [JQ1] + Nc1nc2[nH]cc(CCc3ccc(C(=O)N[C@@H](CCC(=O)O)C(=O)O)cc3)c2c(=O)[nH]1 [Pemetrexed] (partner 0.2 µM)
relative viability ([1]; first compound 0.04 µM): 0.726 | relative viability ([1]; first compound 0.1265 µM): 0.817 | relative viability ([1]; first compound 0.4 µM): 0.683 | relative viability ([1]; first compound 1.265 µM): 0.54 | relative viability ([1]; first compound 4 µM): 0.258 | relative viability ([2]; first compound 0.04 µM): 0.625 | relative viability ([2]; first compound 0.1265 µM): 0.648 | relative viability ([2]; first compound 0.4 µM): 0.515 | relative viability ([2]; first compound 1.265 µM): 0.495 | relative viability ([2]; first compound 4 µM): 0.381 | relative viability ([3]; first compound 0.04 µM): 0.168 | relative viability ([3]; first compound 0.1265 µM): 0.199 | relative viability ([3]; first compound 0.4 µM): 0.172 | relative viability ([3]; first compound 1.265 µM): 0.141 | relative viability ([3]; first compound 4 µM): 0.0882 | relative viability ([4]; first compound 0.04 µM): 0.491 | relative viability ([4]; first compound 0.1265 µM): 0.461 | relative viability ([4]; first compound 0.4 µM): 0.386 | relative viability ([4]; first compound 1.265 µM): 0.335 | relative viability ([4]; first compound 4 µM): 0.367 | relative viability ([5]; first compound 0.04 µM): 0.677 | relative viability ([5]; first compound 0.1265 µM): 0.67 | relative viability ([5]; first compound 0.4 µM): 0.41 | relative viability ([5]; first compound 1.265 µM): 0.208 | relative viability ([5]; first compound 4 µM): 0.171 | relative viability ([6]; first compound 0.04 µM): 0.592 | relative viability ([6]; first compound 0.1265 µM): 0.649 | relative viability ([6]; first compound 0.4 µM): 0.583 | relative viability ([6]; first compound 1.265 µM): 0.478 | relative viability ([6]; first compound 4 µM): 0.49 | relative viability ([7]; first compound 0.04 µM): 1.05 | relative viability ([7]; first compound 0.1265 µM): 1.04 | relative viability ([7]; first compound 0.4 µM): 1.07 | relative viability ([7]; first compound 1.265 µM): 0.893 | relative viability ([7]; first compound 4 µM): 0.718 | relative viability ([8]; first compound 0.04 µM): 0.73 | relative viability ([8]; first compound 0.1265 µM): 0.584 | relative viability ([8]; first compound 0.4 µM): 0.352 | relative viability ([8]; first compound 1.265 µM): 0.254 | relative viability ([8]; first compound 4 µM): 0.193
